Among the test systems are BT-549 breast; COLO 205 colon; DU-145 prostate; LOX IMVI melanoma; NCI-H23 lung; NCI/ADR-RES ovarian; SN12C renal; SW-620 colon; UACC-257 melanoma; CAKI-1 renal.
Assay in all cases: inhibition of tumour cell growth, NCI panel, 48 h

Several values for one entry are separate records, joined by “and”; a condition that tells them apart may be missing. Equal values may be shown once.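 Following 48 hours of exposure in 96-well plates, responses at five concentrations were used to interpolate endpoints linearly. GI50: concentration for 50% inhibition of growth. At the TGI there is no net growth.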

`COc1ccc2c(c1)C(=O)c1c-2c(N(C)C)nc2ccccc12`: the GI50 with BT-549 breast, with COLO 205 colon, in the experiment with DU-145 prostate, with LOX IMVI melanoma, in the experiment with NCI-H23 lung and in the experiment on NCI/ADR-RES ovarian was more than 100 µM each time. Also, the GI50 is 95.3 µM with SN12C renal, more than 100 µM with SW-620 colon and more than 100 µM in the experiment with UACC-257 melanoma. Moreover, the TGI with BT-549 breast, in the experiment with COLO 205 colon, in the experiment on DU-145 prostate, in the experiment with LOX IMVI melanoma, in the experiment on NCI-H23 lung and in the experiment on NCI/ADR-RES ovarian was more than 100 µM in each case. The TGI in the experiment on SN12C renal, with SW-620 colon and in the experiment on UACC-257 melanoma was more than 100 µM in each case.
Consider `CC(=O)C1C(=O)C(=O)N(c2ccccc2C(C)C)C1=O` (stereo not drawn), for which the TGI in the experiment on CAKI-1 renal, in the experiment on COLO 205 colon, in the experiment with LOX IMVI melanoma, with NCI-H23 lung, in the experiment with SN12C renal and in the experiment on SW-620 colon was more than 100 µM in each case. In the experiment with UACC-257 melanoma, this compound yielded a TGI of more than 100 µM.
For the compound `O=C1c2ccccc2-c2c1c1ccccc1c(=O)n2CCN1CCOCC1`, the GI50 in the experiment with BT-549 breast was more than 100 µM; in the experiment with CAKI-1 renal, 23.9 µM; in the experiment with COLO 205 colon, more than 100 µM; in the experiment on DU-145 prostate it was more than 100 µM; in the experiment with LOX IMVI melanoma it was 40.5 µM; in the experiment with NCI/ADR-RES ovarian it was more than 100 µM. Also, the figures for the GI50 in the experiment with SN12C renal, in the experiment on SW-620 colon and with UACC-257 melanoma were 94.1 µM, 87.6 µM and more than 100 µM, respectively. In addition, the TGI was more than 100 µM in the experiment with BT-549 breast; 90.3 µM in the experiment with CAKI-1 renal; more than 100 µM in the experiment with COLO 205 colon; more than 100 µM with DU-145 prostate; more than 100 µM in the experiment on LOX IMVI melanoma; more than 100 µM in the experiment on NCI/ADR-RES ovarian. Further, the TGI in the experiment with SN12C renal, with SW-620 colon and in the experiment with UACC-257 melanoma was more than 100 µM throughout.
Turning to `COc1ccc(C2SC(C)C(=O)N2NC(=O)C(O)c2ccccc2)cc1OC` (stereo not drawn), the GI50 in the experiment with BT-549 breast, with CAKI-1 renal, with COLO 205 colon, in the experiment on DU-145 prostate, in the experiment with LOX IMVI melanoma and in the experiment with NCI/ADR-RES ovarian was more than 100 µM in each case. The GI50 with SN12C renal, in the experiment with SW-620 colon and in the experiment on UACC-257 melanoma was more than 100 µM in each case. The TGI with BT-549 breast, in the experiment on CAKI-1 renal, in the experiment with COLO 205 colon, with DU-145 prostate, in the experiment with LOX IMVI melanoma and in the experiment on NCI/ADR-RES ovarian was more than 100 µM in each case. Moreover, the TGI in the experiment with SN12C renal, with SW-620 colon and with UACC-257 melanoma was more than 100 µM in each case.
With `CN1c2ccccc2N(C)C23N(C)c4ccccc4N(C)C12N(C)c1ccccc1N3C` (stereo not drawn), the TGI in the experiment with CAKI-1 renal, in the experiment on COLO 205 colon, in the experiment with LOX IMVI melanoma, in the experiment on NCI-H23 lung, in the experiment with SN12C renal and with SW-620 colon was more than 100 µM throughout. In addition, in the experiment with UACC-257 melanoma, the TGI was more than 100 µM.
On to `C=C1c2[nH]c3c([N+](=O)[O-])c(OC)ccc3c2CCN1C(C)=O`, for which the TGI with CAKI-1 renal, in the experiment on COLO 205 colon, in the experiment with LOX IMVI melanoma, with NCI-H23 lung, in the experiment with SN12C renal and in the experiment on SW-620 colon was more than 100 µM throughout. In addition, the TGI in the experiment with UACC-257 melanoma was more than 100 µM.
For `Cc1cc(Cl)ccc1NC(=O)CC/C(CC(=O)C(C)C)=N\NC(=O)C[n+]1ccccc1`, the TGI in the experiment with CAKI-1 renal, in the experiment on COLO 205 colon, with LOX IMVI melanoma, in the experiment on NCI-H23 lung, in the experiment on SN12C renal and with SW-620 colon was more than 100 µM in each case. In the experiment with UACC-257 melanoma, this compound displayed a TGI of more than 100 µM.
With `C1CN(SSN2CCOCC2)CCO1`, the GI50 in the experiment on BT-549 breast was 30 µM; in the experiment on CAKI-1 renal, 33.7 µM; in the experiment with COLO 205 colon, 25 µM; in the experiment with DU-145 prostate, more than 100 µM; with NCI-H23 lung it was 22.5 µM; with NCI/ADR-RES ovarian it was 35.3 µM. The values for the GI50 with SN12C renal, in the experiment on SW-620 colon and in the experiment on UACC-257 melanoma were 26.6 µM, 19.4 µM and 62.8 µM, respectively. For the same compound, the TGI is more than 100 µM in the experiment on BT-549 breast; more than 100 µM in the experiment on CAKI-1 renal; 64 µM in the experiment on COLO 205 colon; more than 100 µM with DU-145 prostate; 55.9 µM in the experiment with NCI-H23 lung; more than 100 µM with NCI/ADR-RES ovarian. Also, the figures for the TGI in the experiment on SN12C renal, with SW-620 colon and in the experiment on UACC-257 melanoma were 77.8 µM, 42 µM and more than 100 µM, respectively.
For the compound `COc1ccc(/C=C\c2cc(OC)c(OC)c(OC)c2)cc1OC`, the TGI was more than 100 µM with BT-549 breast; 40.4 µM with CAKI-1 renal; 0.171 µM and 0.662 µM with COLO 205 colon; 40.4 µM and 17.7 µM with LOX IMVI melanoma; 40.4 µM and > 100 µM with NCI-H23 lung; more than 100 µM with NCI/ADR-RES ovarian. Moreover, the TGI is 40.4 µM and > 100 µM in the experiment with SW-620 colon; 40.4 µM and > 100 µM in the experiment on UACC-257 melanoma. In addition, the GI50 was 0.11 µM with COLO 205 colon; 0.0829 µM in the experiment with LOX IMVI melanoma; 0.447 µM with NCI-H23 lung; 0.94 µM in the experiment with SN12C renal; 0.0472 µM in the experiment with SW-620 colon; 6.09 µM with UACC-257 melanoma.
As to `CN(/N=C/c1cccc2cccnc12)c1ccccc1`, the TGI in the experiment on CAKI-1 renal, with COLO 205 colon, in the experiment with LOX IMVI melanoma, in the experiment on NCI-H23 lung, in the experiment on SN12C renal and in the experiment on SW-620 colon was more than 100 µM throughout. Further, the TGI with UACC-257 melanoma is more than 100 µM.
For the compound `O=S1(=O)OCCOS(=O)(=O)C1Cc1ccccc1`, the TGI in the experiment with CAKI-1 renal is more than 100 µM; in the experiment on COLO 205 colon it was 34.8 µM; in the experiment with LOX IMVI melanoma it was more than 100 µM; with NCI-H23 lung, more than 100 µM; in the experiment on SN12C renal, more than 100 µM; in the experiment on SW-620 colon, more than 100 µM. The compound further gave a TGI in the experiment with UACC-257 melanoma of more than 100 µM.

The record behind these values is PubChem BioAssay (NCI).
